| Compound | melting point |
| --- | --- |
| COc1ccc(-c2cc(CO)nn2-c2ccc(S(N)(=O)=O)cc2)cc1I [Example 5, 4-[3-(Hydroxymethyl)-5-(3-iodo-4-methoxyphenyl)-1H-pyrazol-1-yl]benzenesulfonamide] | 192.3 to 193.3 °C |
| COc1ccc(-c2cc(C(F)F)nn2-c2ccc(S(N)(=O)=O)cc2)cc1I [Example 6, 4-[3-(Difluoromethyl)-5-(3-iodo-4-methoxyphenyl)-1H-pyrazol-1-yl]benzenesulfonamide] | 184.2 to 188.4 °C |
| COc1ccc(-c2cc(C(F)(F)F)nn2-c2ccc(S(N)(=O)=O)cc2)cc1I [Example 7, 4-[5-(3-Iodo-4-methoxyphenyl)-3-trifluoromethyl-1H-pyrazol-1-yl]benzenesulfonamide] | 183.1 to 185.6 °C |

From patent US20010055565A1, “Method of detecting cyclooxygenase-2” (G.D. Searle & Co., priority 1995, published 2001)
